# The source made the active and inactive calls. The rule behind the calls is not given here.
# Legend:
# [1] = biological target: T1, S-methyl-5'-thioadenosine phosphorylase (Homo sapiens, UniProt Q13126); assay: Inhibitory concentration against Methylthioadenosine phosphorylase
# T1 sequence (Q13126 whole entry): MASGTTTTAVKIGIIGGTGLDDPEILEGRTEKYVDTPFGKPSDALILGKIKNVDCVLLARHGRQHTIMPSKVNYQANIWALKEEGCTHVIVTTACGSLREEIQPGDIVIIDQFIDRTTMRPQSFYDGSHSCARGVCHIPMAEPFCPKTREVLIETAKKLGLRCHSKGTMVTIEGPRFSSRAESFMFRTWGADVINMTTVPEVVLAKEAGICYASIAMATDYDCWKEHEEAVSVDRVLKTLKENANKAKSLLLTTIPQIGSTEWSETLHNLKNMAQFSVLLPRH
# [2] = system: MOLT-4; assay: Tested for inhibition of MOLT-4 cells proliferation in the presence of 3 uM MTA; format: functional, cell-based; details: Homo sapiens
# [3] = system: MOLT-4; assay: Tested for inhibition of MOLT-4 cells proliferation in the presence of 100 nM methotrexate and 10 uM of the compound; not significant; format: functional, cell-based; details: Homo sapiens
# [4] = system: MOLT-4; assay: Tested for inhibition of MOLT-4 cells proliferation up to 10 uM; No Inhibition; format: functional, cell-based; details: Homo sapiens
compound,measurement,setting,value
CSC[C@H]1N[C@@H](c2c[nH]c3c(N)ncnc23)[C@H](O)[C@@H]1O,IC50,[1],1.2 nM
same,IC50,[2],1000 nM
same,inhibition,[3],inactive
same,inhibition,[4],inactive

# Source: ChEMBL document CHEMBL1149090, “Synthesis of a potent transition-state inhibitor of 5'-deoxy-5'-methylthioadenosine phosphorylase” (J Med Chem, 2004)
